One experiment deals with T1, human LXRβ (Homo sapiens, UniProt P55055).
T1 construct: biotin (biotinylated); made in house; host or cells: E. coli (crude extract)
T1 sequence (P55055 1-460): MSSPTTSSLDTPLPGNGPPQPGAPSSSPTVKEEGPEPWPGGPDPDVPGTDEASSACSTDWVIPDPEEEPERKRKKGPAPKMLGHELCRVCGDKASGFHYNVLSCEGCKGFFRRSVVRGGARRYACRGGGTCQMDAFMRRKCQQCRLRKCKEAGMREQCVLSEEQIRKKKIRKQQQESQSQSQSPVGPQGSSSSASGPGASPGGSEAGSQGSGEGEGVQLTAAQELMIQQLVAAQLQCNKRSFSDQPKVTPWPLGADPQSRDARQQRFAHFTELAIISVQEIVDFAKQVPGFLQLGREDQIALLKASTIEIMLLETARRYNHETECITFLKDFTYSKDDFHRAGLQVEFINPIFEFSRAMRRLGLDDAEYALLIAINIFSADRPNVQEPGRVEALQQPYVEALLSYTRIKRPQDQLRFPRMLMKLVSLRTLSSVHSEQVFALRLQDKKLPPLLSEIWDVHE
Kind of experiment: Ligand-binding test procedure for human LXRβ (3H T0901317 tracer, flash plates). To be noted: biotinylated hLXRβ from E. coli extract; tracer 3H T0901317. As to the method: I. Ligand-Binding Test Procedure for Human LXRβ.
Receptor source: E. coli extract from cells expressing biotinylated hLXRβ. Extract was made in a similar buffer as above, but with 50 mM TRIS.
(§1) Washed streptavidin and coated flash plates with wash buffer. Diluted receptor extract to give Bmax ˜4000 cpm and add to the wells. Wrapped the plates in aluminum foil and stored them at +4° C. over night.
(§2) Made a dilution series in DMSO of the test ligands. Made a 5 nM solution of the radioactive tracer in buffer. Mixed 250 μl diluted tracer with 5 μl of the test ligand from each concentration of the dilution series. Washed the receptor-coated flash plates. Added 200 μl per well of the ligand/radiolabel mixture to the receptor-coated flash plates. Wrapped the plates in aluminum foil and incubate at +4° C. over night.
(§3) Aspirated wells, and wash the flashed plates. Sealed the plate. Measured the remaining radioactivity in the plate.

Another experiment addresses T2, human LXRα (Homo sapiens, UniProt Q13133).
T2 construct: biotin (biotinylated); made in house; host or cells: E. coli (crude extract)
T2 sequence (Q13133 1-447): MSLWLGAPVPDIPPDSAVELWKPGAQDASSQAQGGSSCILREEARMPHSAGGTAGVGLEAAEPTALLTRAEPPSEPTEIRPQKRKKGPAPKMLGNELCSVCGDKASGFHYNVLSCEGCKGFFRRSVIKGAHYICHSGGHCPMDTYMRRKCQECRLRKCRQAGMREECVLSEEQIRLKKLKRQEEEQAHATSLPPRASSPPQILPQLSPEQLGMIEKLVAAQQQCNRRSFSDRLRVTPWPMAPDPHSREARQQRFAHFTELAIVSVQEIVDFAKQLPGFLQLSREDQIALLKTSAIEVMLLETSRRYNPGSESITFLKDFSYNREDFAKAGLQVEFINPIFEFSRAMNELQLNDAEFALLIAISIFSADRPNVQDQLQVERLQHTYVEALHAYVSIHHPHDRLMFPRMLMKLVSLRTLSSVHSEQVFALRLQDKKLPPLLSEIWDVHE
The experiment can be described thus: Ligand-binding test procedure for human LXRα (3H T0901317 tracer, flash plates). To be noted: biotinylated hLXRα from E. coli extract; tracer 3H T0901317. As to the method: II. Ligand-Binding Test Procedure for Human LXRα.
Receptor source: E. coli extract from cells expressing biotinylated hLXRα. Extract was made in a similar buffer as above, but with 50 mM TRIS.
as §1, §2, §3

Where only a bound is given, the exact number is not on record here.

In general, IC50 refers to the point on the concentration scale where inhibition reaches its midpoint. Read a high IC50 as weaker potency in that assay. Take `CCc1nc2c(C#N)cccn2c1-c1cccc(Oc2cccc(S(N)(=O)=O)c2)c1` [Example 50, 3-[3-(8-cyano-2-ethylimidazo[1,2-a]pyridin-3-yl)phenoxy]benzenesulfonamide]: the IC50 was 940 nM on human LXRβ and 14700 nM at human LXRα.
For `CC(C)c1nc2c(Cl)cccn2c1-c1cccc(OCc2cccc(S(C)(=O)=O)c2)c1` [Example 53, 8-chloro-2-isopropyl-3-(3-{[3-(methylsulfonyl)benzyl]oxy}phenyl)imidazo[1,2-a]pyridine] the same measures were 137 nM and 1860 nM.
For `CCc1nc2c(C#N)cccn2c1-c1cccc(OCc2cccc(S(C)(=O)=O)c2)c1` [Example 54, 2-ethyl-3-(3-{[3-(methylsulfonyl)benzyl]oxy}phenyl)imidazo[1,2-a]pyridine-8-carbonitrile] the same measures were 3060 nM and 41100 nM.
For `CC(C)c1nc2c(C#N)cccn2c1-c1cccc(OCc2cccc(S(C)(=O)=O)c2)c1` [Example 55, 2-isopropyl-3-(3-{[3-(methylsulfonyl)benzyl]oxy}phenyl)imidazo[1,2-a]pyridine-8-carbonitrile] the same measures were 1100 nM and 28500 nM.
As for `CC(C)c1nc2c(C(F)(F)F)cccn2c1-c1cccc(OCc2ccc(S(C)(=O)=O)cc2)c1` [Example 56, 2-isopropyl-3-(3-{[4-(methylsulfonyl)benzyl]oxy}phenyl)-8-(trifluoromethyl)imidazo[1,2-a]pyridine], the half-inhibitory concentration (IC50) at human LXRβ stood at 4190 nM; on human LXRα, 36500 nM.
As for `CC(C)c1nc2c(Cl)cccn2c1-c1cccc(OCc2ccc(S(C)(=O)=O)cc2)c1` [Example 57, 8-chloro-2-isopropyl-3-(3-{[4-(methylsulfonyl)benzyl]oxy}phenyl)imidazo[1,2-a]pyridine], the values for the IC50 on human LXRβ and on human LXRα were 8430 nM and greater than 1000 nM, respectively.
For `CCc1nc2c(C#N)cccn2c1-c1cccc(OCc2ccc(S(C)(=O)=O)cc2)c1` [Example 58, 2-ethyl-3-(3-{[4-(methylsulfonyl)benzyl]oxy}phenyl)imidazo[1,2-a]pyridine-8-carbonitrile] the same measures were greater than 1000 nM and greater than 1000 nM.
`CC(C)c1nc2c(C#N)cccn2c1-c1cccc(OCc2ccc(S(C)(=O)=O)cc2)c1` [Example 59, 2-isopropyl-3-(3-{[4-(methylsulfonyl)benzyl]oxy}phenyl)imidazo[1,2-a]pyridine-8-carbonitrile]: the IC50 on human LXRβ and on human LXRα was greater than 1000 nM each time.
In the case of `CNCCCS(=O)(=O)c1cccc(Oc2cccc(-c3c(C(C)C)nc4c(C(F)(F)F)cccn34)c2)c1` [Example 62, 3-[(3-{3-[2-isopropyl-8-(trifluoromethyl)imidazo[1,2-a]pyridin-3-yl]phenoxy}phenyl)sulfonyl]-N-methylpropan-1-amine], the IC50 is 91.5 nM at human LXRβ and 2810 nM on human LXRα.
For `CCc1nc2c(C#N)cccn2c1-c1cccc(Oc2cccc(S(C)(=O)=O)c2)c1` [Example 69, 2-ethyl-3-{3-[3-(methylsulfonyl)phenoxy]phenyl}imidazo[1,2-a]pyridine-8-carbonitrile] the same measures were 161 nM and 2700 nM.
For `CCS(=O)(=O)c1cccc(Oc2cccc(-c3c(C(C)(C)C)nc4c(C(F)(F)F)cccn34)c2)c1` [Example 76, 2-tert-butyl-3-{3-[3-(ethylsulfonyl)phenoxy]phenyl}-8-(trifluoromethyl)imidazo[1,2-a]pyridine] the same measures were 5.6 nM and 135 nM.
As to `CC(C)S(=O)(=O)c1cccc(Oc2cccc(-c3c(C(C)(C)C)nc4c(C(F)(F)F)cccn34)c2)c1` [Example 77, 2-tert-butyl-3-{3-[3-(isopropylsulfonyl)phenoxy]phenyl}-8-(trifluoromethyl)imidazo[1,2-a]pyridine], the figures for the IC50 at human LXRβ and on human LXRα were 6.1 nM and 160 nM, respectively.
